Patent US20240368406A1, “STABLE LIQUID PHANTOM FOR NEAR-INFRARED FLUORESCENCE VERIFICATION” (SURGVISION GMBH, priority 2021, published 2024)

Legend:
Type in all cases: physicochemical
[1] = Stability of the phantom solutions at +2-8° C. (residual absorbance, UV/VIS)
Method: Several stability studies were performed to evaluate the effect of different buffers, additives such as excipients or preservatives, and storage conditions on the dye formulation. In particular the stability of the formulations after storage at +2-8° C. in a refrigerator was firstly investigated.
(§1) Stability was measured as reduction in the absorbance at the maximum wavelength of the dye acquired using a UV/VIS spectrophotometer, denoting reduction of the dye monomer content in solution. All the results were then reported as residual percentage vs the baseline (T=0), wherein at time=0 the percentage is 100%. A decrease in absorbance is associated with the reduction of the concentration of the dye in the formulation buffer, indicating low stability and degradation of the main chromophore species.
In the Tables below the residual absorbance of different dyes, i.e. […] and S0456, in some representative organic buffering solutions is reported after storage of the formulations at +2-8° C.

[2] = Stability of the phantom solutions at +2-8° C. in the presence of additives (residual absorbance); settings: +2-8° C.
Method: as §1
The effect of the presence of an additive on the stability of the formulations of the invention has been also investigated.
The preparation of the above buffers is described below:
50 mM HEPES (pH 7.4)+0.04% Tween 20: to prepare 100 mL of buffering solution, 1.19 g of HEPES were dissolved in 80 mL of water; 40 μL of Tween 20 were added and the pH was adjusted to 7.4 with 0.1 M HCl. The buffering solution was then brought to 100 mL volume with water and filtered on 0.22 μm membrane in sterile conditions.
50 mM HEPES (PH 7.4)+0.02% Sodium Azide: to prepare 100 mL of buffering solution, 1.19 g of HEPES and 20 mg of Sodium Azide were dissolved in 80 mL of water and the pH was adjusted to 7.4 with 0.1 M HCl. The buffering solution was then brought to 100 mL volume with water and filtered on 0.22 μm membrane in sterile conditions.
10 mM HEPES (PH 7.0)+10% EtOH: to prepare 100 mL of buffering solution, 0.24 g of HEPES were dissolved in 80 mL of water and the pH was adjusted to 7.0 with 0.1 M HCl.
Then, 10 mL of 100% Ethanol were added. The buffering solution was then brought to 100 mL volume with water and filtered on 0.22 μm membrane in sterile conditions.
Analogous solutions were prepared with the same procedure for MOPS, BES and TRICINE buffers.

[3] = Stability of the phantom solutions at +2-8° C. during long-term storage (residual absorbance); settings: 3 μM dye in HEPES 10 mM, pH 7.0, +2-8° C. protected from light
Method: Stability was measured as reduction in the absorbance at the maximum wavelength of the dye acquired using a UV/VIS spectrophotometer, denoting reduction of the dye monomer content in solution. […] A decrease in absorbance is associated with the reduction of the concentration of the dye in the formulation buffer, indicating low stability and degradation of the main chromophore species. The stability of the formulations under long-term storage conditions was also investigated. In particular, samples of 3 μM IRDye […] and 3 μM IRDye 800BK dissolved in HEPES buffer were stored refrigerated at +2-8° C. protected from light exposure for at least 6 months. For the long-term stability study at 2-8° C., samples of.

Residual absorbance percentage ([1]; 3 μM dye in BES buffer 10 mM, pH 7.0, +2-8° C., 1 week): 97.6%
Residual absorbance percentage ([1]; 3 μM dye in BES buffer 10 mM, pH 7.0, +2-8° C., 2 weeks): 94.8%
Residual absorbance percentage ([1]; 3 μM dye in BES buffer 10 mM, pH 7.0, +2-8° C., 4 weeks): 92.0%
Residual absorbance percentage ([1]; 3 μM dye in BES buffer 10 mM, pH 7.4, +2-8° C., 1 week): 97.6%
Residual absorbance percentage ([1]; 3 μM dye in BES buffer 10 mM, pH 7.4, +2-8° C., 2 weeks): 94.4%
Residual absorbance percentage ([1]; 3 μM dye in BES buffer 10 mM, pH 7.4, +2-8° C., 4 weeks): 91.5%
Residual absorbance percentage ([1]; 3 μM dye in BES buffer 10 mM, pH 7.8, +2-8° C., 1 week): 96.4%
Residual absorbance percentage ([1]; 3 μM dye in BES buffer 10 mM, pH 7.8, +2-8° C., 2 weeks): 92.4%
Residual absorbance percentage ([1]; 3 μM dye in BES buffer 10 mM, pH 7.8, +2-8° C., 4 weeks): 88.1%
Residual absorbance percentage ([1]; 3 μM dye in BES buffer 50 mM, pH 7.0, +2-8° C., 1 week): 96.8%
Residual absorbance percentage ([1]; 3 μM dye in BES buffer 50 mM, pH 7.0, +2-8° C., 2 weeks): 93.5%
Residual absorbance percentage ([1]; 3 μM dye in BES buffer 50 mM, pH 7.0, +2-8° C., 4 weeks): 90.0%
Residual absorbance percentage ([1]; 3 μM dye in BES buffer 50 mM, pH 7.4, +2-8° C., 1 week): 97.2%
Residual absorbance percentage ([1]; 3 μM dye in BES buffer 50 mM, pH 7.4, +2-8° C., 2 weeks): 94.0%
Residual absorbance percentage ([1]; 3 μM dye in BES buffer 50 mM, pH 7.4, +2-8° C., 4 weeks): 90.5%
Residual absorbance percentage ([1]; 3 μM dye in BES buffer 50 mM, pH 7.8, +2-8° C., 1 week): 95.9%
Residual absorbance percentage ([1]; 3 μM dye in BES buffer 50 mM, pH 7.8, +2-8° C., 2 weeks): 91.7%
Residual absorbance percentage ([1]; 3 μM dye in BES buffer 50 mM, pH 7.8, +2-8° C., 4 weeks): 89.6%
Residual absorbance percentage ([1]; 3 μM dye in MOPS buffer 10 mM, pH 7.0, +2-8° C., 1 week): 97.9%
Residual absorbance percentage ([1]; 3 μM dye in MOPS buffer 10 mM, pH 7.0, +2-8° C., 2 weeks): 95.7%
Residual absorbance percentage ([1]; 3 μM dye in MOPS buffer 10 mM, pH 7.0, +2-8° C., 4 weeks): 93.7%
Residual absorbance percentage ([1]; 3 μM dye in MOPS buffer 10 mM, pH 7.4, +2-8° C., 1 week): 97.9%
Residual absorbance percentage ([1]; 3 μM dye in MOPS buffer 10 mM, pH 7.4, +2-8° C., 2 weeks): 95.3%
Residual absorbance percentage ([1]; 3 μM dye in MOPS buffer 10 mM, pH 7.4, +2-8° C., 4 weeks): 93.6%
Residual absorbance percentage ([1]; 3 μM dye in MOPS buffer 10 mM, pH 7.8, +2-8° C., 1 week): 96.9%
Residual absorbance percentage ([1]; 3 μM dye in MOPS buffer 10 mM, pH 7.8, +2-8° C., 2 weeks): 94.1%
Residual absorbance percentage ([1]; 3 μM dye in MOPS buffer 10 mM, pH 7.8, +2-8° C., 4 weeks): 91.1%
Residual absorbance percentage ([1]; 3 μM dye in MOPS buffer 50 mM, pH 7.0, +2-8° C., 1 week): 97.4%
Residual absorbance percentage ([1]; 3 μM dye in MOPS buffer 50 mM, pH 7.0, +2-8° C., 2 weeks): 94.6%
Residual absorbance percentage ([1]; 3 μM dye in MOPS buffer 50 mM, pH 7.0, +2-8° C., 4 weeks): 92.0%
Residual absorbance percentage ([1]; 3 μM dye in MOPS buffer 50 mM, pH 7.4, +2-8° C., 1 week): 97.5%
Residual absorbance percentage ([1]; 3 μM dye in MOPS buffer 50 mM, pH 7.4, +2-8° C., 2 weeks): 94.9%
Residual absorbance percentage ([1]; 3 μM dye in MOPS buffer 50 mM, pH 7.4, +2-8° C., 4 weeks): 92.6%
Residual absorbance percentage ([1]; 3 μM dye in MOPS buffer 50 mM, pH 7.8, +2-8° C., 1 week): 97.0%
Residual absorbance percentage ([1]; 3 μM dye in MOPS buffer 50 mM, pH 7.8, +2-8° C., 2 weeks): 94.0%
Residual absorbance percentage ([1]; 3 μM dye in MOPS buffer 50 mM, pH 7.8, +2-8° C., 4 weeks): 91.3%
Residual absorbance percentage ([2]; 3 μM dye in BES (10 mM, pH 7.0) +10% EtOH, 1 week): 99.2%
Residual absorbance percentage ([2]; 3 μM dye in BES (10 mM, pH 7.0) +10% EtOH, 2 weeks): 98.2%
Residual absorbance percentage ([2]; 3 μM dye in BES (10 mM, pH 7.0) +10% EtOH, 4 weeks): 97.2%
Residual absorbance percentage ([2]; 3 μM dye in HEPES (10 mM, pH 7.0) +10% EtOH, 1 week): 97.8%
Residual absorbance percentage ([2]; 3 μM dye in HEPES (10 mM, pH 7.0) +10% EtOH, 2 weeks): 97.2%
Residual absorbance percentage ([2]; 3 μM dye in HEPES (10 mM, pH 7.0) +10% EtOH, 4 weeks): 95.1%
Residual absorbance percentage ([2]; 3 μM dye in MOPS (10 mM, pH 7.0) +10% EtOH, 1 week): 97.6%
Residual absorbance percentage ([2]; 3 μM dye in MOPS (10 mM, pH 7.0) +10% EtOH, 2 weeks): 95.8%
Residual absorbance percentage ([2]; 3 μM dye in MOPS (10 mM, pH 7.0) +10% EtOH, 4 weeks): 92.9%
Residual absorbance percentage ([3]; 1 month): 99.1%
Residual absorbance percentage ([3]; 3 months): 94.1%
Residual absorbance percentage ([3]; 6 months): 93.3%
SMILES: CC1(C)C(/C=C/C2=C(Oc3ccc(S(=O)(=O)O)cc3)C(=C/C=C3\N(CCCCS(=O)(=O)[O-])c4ccc(S(=O)(=O)O)cc4C3(C)C)/CCC2)=[N+](CCCCS(=O)(=O)O)c2ccc(S(=O)(=O)O)cc21 [IRDye 800BK]
